Legend:
CTLs [1] = assay: co-transfer of pentanoate-treated and control CTLs into Rag1-deficient mice; format: in vivo
Text: To investigate the capacity of SCFAs on survival and persistence of CD8^+ T cells, we mixed pentanoate-treated CTLs (CD45.2^+) with control CTLs (CD45.1^+) at 1:1 ratio and co-transferred them into Rag1-deficient mice. To better mimic the in vivo tumor microenvironment, we also adoptively co-transferred Tregs (CD45.2^+ from FIR×tiger reporter mice) that are frequently found in solid tumors. In addition, Foxp3^−CD4^+ T cells were co-transferred as the cellular source of IL-2 (FIG. 9, A and B). […] The capacity of CFSE to label proliferative cells was used for in vivo monitoring of CD8^+ T cell proliferation in Rag1-deficient mice after pretreatment with pentanoate. […] Given the importance of CD25 in supporting an effective IL-2R signalling, as well as the proliferation and survival of lymphocytes, we next asked whether pentanoate is capable of modulating CD25 expression in CTLs.
(A) experimental setup for investigating CTL persistence in vivo is shown. (B-D) The frequency (B, C) and total cell numbers (D) of transferred T cells (WT CD45.1^+ CTLs, WT CD45.2^+ pentanoate-treated CTLs and Foxp3^+CD45.2^+ Tregs from FIR×tiger mice) in Rag1-deficient mice on days 15 after the adoptive transfer are shown. The co-transferred Foxp3^−CD4^+ cells were excluded from the gate (B, C). In D, n=_3 mice/group/experiment, data from 2 pooled independent experiments are shown. […] (G and H) Frequencies and cell numbers of CD25^+ CD8^+ T cells were analysed by flow cytometry on day 15 after transfer of control CTLs (CD45.1^+) and pentanoate-treated CTLs (CD45.2^+) into Rag1-deficient mice (n=3 mice/group/experiment, data pooled from 2 independent experiments). […] The phosphorylated (p)-STAT5 levels were analysed by flow cytometry (n=5, performed in 3 independent experiments). (J) The secretion of IL-2 in pentanoate-treated CTLs cultured for indicated time points was measured by ELISA (n=4, pooled from 2 independent experiments).

human CAR T cells = assay: human ROR1-specific CAR T cells pretreated, then co-cultured with ROR1-expressing K562 cells; format: cell-based
Text: We next investigated the impact of SCFAs on human CD8^+ T lymphocytes and CAR T cells.
(A) CD8^+ T cells isolated from peripheral blood of healthy donors were differentiated into CTLs in presence or absence of indicated HDACi. Representative contour plots and dot plots indicate the frequency of TNF-α+ and IFN-γ^+ cells. Data points in the graphs represent individual donors (n=4, performed in 4 independent experiments) (B-G) Phenotyping of pentanoate-treated ROR1-specific CD8^+ CAR T cells (CARROR1 T cells). (B) Experimental setup for the functional analysis is shown. (C) The cytokine secretion (IFN-γ and TNF-α) was analysed in supernatants of pentanoate-treated CARROR1 T cells by ELISA. (D) The surface expression of CD25 was measured by flow cytometry. (E) The secretion of IL-2 was detected in supernatants of CARROR1 T cells by ELISA. (F) Proliferation of CARROR1 T cells was determined by CFSE labelling. CARROR1 T cells pre-treated with pentanoate were stained with CFSE and subsequently co-cultured with […] cells in the absence of pentanoate. CD8^+ T cells without the CAR construct were used as mock control cells. (G) The cytolytic activity of CARROR1 T cells was examined by analysis of specific lysis following encounter with luciferase-expressing […] cells. The percentage of lysed target cells was determined in 1 hour intervals (effector-to-target cell (E:T) ratio=2.5:1). Data points shown in the graphs (C-G) represent CARROR1 T cells derived from three different donors. Following pentanoate pre-treatment, the stimulation was mediated by co-culture of CD8^+ CARROR1 T cells with ROR1-expressing K652 ([…]) cells in the absence of pentanoate.

CTLs [2] = assay: extracellular acidification rate (ECAR) of CTLs; format: cell-based, murine; settings: 2.5 mM pentanoate, three days
Procedure: (A and B) CTLs were cultured in medium containing 1.0% FCS and treated with pentanoate (2.5 mM) for three days. Representative histogram plots and bar graphs indicate the phoshorylated levels of mTOR (A) and S6 ribosomal protein (B), respectively (n=3 pooled from three independent experiments). (C and D) Human CTLs were cultured in medium containing 1.0% serum and treated with indicated HDACi for three days. Representative histogram plots and bar graphs indicate the phoshorylated levels of mTOR (C) and S6 ribosomal protein (D), respectively (data points represent four individual healthy donors) (E) Measurement of extracellular acidification rate (ECAR) for in vitro generated murine CTLs cultured with or without 2.5 mM pentanoate for three days. ECAR was measured under basal conditions and in response to glucose (10 mM), oligomycin (2 μM), and 2-deoxy-glucose (2-DG, 100 mM). One of three independent experiments is shown.

CCCCC(=O)O [pentanoate]
frequencies and numbers of CD25+CD8+ T cells in iLN, mLN and spleen (CTLs [1]; day 15 after transfer, vs control CTLs): increased frequencies and numbers
in vivo proliferation of CFSE labelled CD8+ T cells (CTLs [1]; days 4 after transfer, vs control CTLs): stronger proliferative ability
cell number and frequency of transferred CD8+ T lymphocytes (CTLs [1]; days 15 after transfer, without cognate antigen): high cell number and frequency
proliferation of CAR T cells (human CAR T cells; CFSE labelling, vs control CAR T cells): proliferated stronger
expression of CD25 (human CAR T cells; pretreated 4 days): upregulated
production of IFN-γ and TNF-α (human CAR T cells; pretreated 4 days, ELISA): elevated the production
secretion of IL-2 (human CAR T cells; pretreated 4 days, ELISA): upregulated
cytolytic activity (human CAR T cells; specific lysis, E:T ratio 2.5:1): superior cytolytic activity
extracellular acidification rate (ECAR) (CTLs [2]): increased
